Measurements reported in patent publication US20080287486A1, “Prokinetic agent for bowel preparation” (Theravance, Inc., priority 2007, published 2008).

System: healthy subjects
Assay: Measurement of onset of bowel movement in healthy subjects (stool diary card, rising single doses)
Format: in vivo, human
Conditions: for Mean Number of Bowel Movements / Median Time to First Bowel Movement: first 24 hour post dosing period; for Mean Number of Bowel Movements: standard deviation in parentheses; for Median Time to First Bowel Movement: gelatin capsules; for average Bristol score (stool consistency, 1 hard pellets to 7 liquid): placebo 3.2 (0.7)
Protocol: Subjects were monitored for safety and evidence of prokinetic effects using a stool diary card. Time and consistency (Bristol score) of each bowel movement were recorded.

Question: With `CC(C)n1c(=O)c(C(=O)N[C@H]2C[C@H]3CC[C@@H](C2)N3C[C@@H](O)CN(C)S(C)(=O)=O)cc2ccccc21.Cl` [prokinetic agent, 1-isopropyl-2-oxo-1,2-dihydroquinoline-3-carboxylic acid {(1S,3R,5R)-8-[(R)-2-hydroxy-3-(methanesulfonyl-methyl-amino)propyl]-8-aza-bicyclo[3.2.1]oct-3-yl}amide hydrochloride] as the compound, how does the “Mean Number of Bowel Movements” value (10 mg dose) read?
Answer: 2.1 (1.2)

Question: And the “Median Time to First Bowel Movement” value (10 mg dose)?
Answer: 1.6 h

Question: And the “Mean Number of Bowel Movements” value (20 mg dose)?
Answer: 2.0 (1.5)

Question: What about the “Median Time to First Bowel Movement” value (20 mg dose) of the same compound?
Answer: 1.0 h

Question: What about the “Mean Number of Bowel Movements” value (30 mg dose) of the same compound?
Answer: 3.6 (2.4)

Question: And the “Median Time to First Bowel Movement” value (30 mg dose)?
Answer: 1.1 h

Question: And the “Mean Number of Bowel Movements” value (50 mg dose)?
Answer: 5.9 (3.9)

Question: What about the “Median Time to First Bowel Movement” value (50 mg dose) of the same compound?
Answer: 1.1 h

Question: What about the “average Bristol score (stool consistency, 1 hard pellets to 7 liquid)” value (50 mg dose) of the same compound?
Answer: 5.6 (0.9)

Question: And the “Mean Number of Bowel Movements” value (70 mg dose)?
Answer: 6.0 (3.0)

Question: And the “Median Time to First Bowel Movement” value (70 mg dose)?
Answer: 0.9 h

Question: What about the “average Bristol score (stool consistency, 1 hard pellets to 7 liquid)” value (plateau at 20-70 mg) of the same compound?
Answer: 5.4-6.0

Question: And the “time at which the effect dissipated post dosing” value (post dosing)?
Answer: 24 to 48 h
